Assay results as given in patent US5153352A, “Process for preparation of intermediates of carbocyclic nucleoside analogs” (priority 1990, dated 1992).

How the values were obtained:
[1] = system: Human Immunodeficiency Virus (HIV); test: HIV CPE inhibition assay in ATH8 cells; type: cell-based
Experimental: (§1) The ATH8 human T-cell line expresses high levels of the CD4 surface antigen and is quite sensitive to the cytopathogenic effect (CPE) of HIV. The cells were propagated in RPMI 1640 medium supplemented with 4mM glutamine, 15% heat-inactivated fetal bovine serum (Biocell), antibiotics (50 units of penicillin and […] of streptomycin per ml), and 50 units of recombinant-derived human interleukin-2 (ala-125; AMGen Biologicals) per ml.
The clone H9 cell line is another CD4^+ human T-cell line which is permissive for HIV replication but largely resistant to virus induced CPE. H9 cells productively infected with the HTLV IIIB strain of HIV served as the source of infectious virus. These cells were propagated in RPMI 1640 medium supplemented with glutamine and antibiotics as described above, and with 20% heat-inactivated fetal bovine serum. Freshly harvested, undiluted culture supernatant from the H9/HTLV-IIIB producer cells was used for infectious virus inoculum.
The screening of compounds for antiviral activity was performed using a modification of the CPE inhibition assay originally developed by Broder and co workers. This assay is based on the ability of uninfected ATH8 cells to grow and form a pellet at the bottom of a culture tube. Starting about 4 days after HIV addition, infected ATH8 cells begin to die and the pellet starts to break up. By day 10 a clear differential is observable in the size of the cell pellet in uninfected control wells versus infected control wells. The protective effect of test compounds can be assessed by adding them at varying concentrations to the cultured cells at the time of virus infection, then monitoring the status of the cell pellet.
(§2) ATH8 cells were used as the primary target in the HIV induced CPE inhibition assay. Cells were treated with polybrene (2 ug/ml in growth medium) for 30 minutes at 37° C., then collected by gentle centrifugation (40×g for 15 minutes at room temperature) and resuspended in clarified (8000×g for 15 minutes at 4° C.) supernate freshly harvested from 48 hours post passage H9/HTL IIIB cells. Following a 60-minute adsorption period at 37° C., the cells were dispensed into the U-bottom wells of 96-well trays (1×10^4 cells in 0.1 ml per well). An equal volume (0.1 ml) of supplemented RPMI 1640 medium containing test compound and twice the normal concentration of interleukin-2 was then added to each well. Test compounds were evaluated at seven half-log dilutions ranging from 100 uq/ml to 0.1 uq/ml. […]
(§3) Between 7 and 10 days post infection, all wells were visually monitored for the degree of CPE inhibition as reflected by cell pellet size, and aliquots were taken from selected wells for determination of cell number and viability (based on trypan blue dye exclusion).

[2] = compound cytotoxicity in ATH8 cells (HIV CPE inhibition assay); type: cell-based; conditions: human, read-out: MTC
Experimental: as §1
as §2, with “An equal volume (0.1 ml) of supplemented RPMI 1640 medium containing test compound and twice the normal concentration of interleukin-2 was then added to each well.” left out
as §3

SMILES: OCC1CC(n2cnc3c(Cl)ncnc32)C1CO (centres unmarked) [Example 4B, 3-(6'-chloro-9'H-purin-9'-yl)-1,2-bis(hydroxymethyl)cyclobutane]
- VR [1]: 1.1
- MCC [2]: 10 µg/mL
